As a reminder, the IC50 is the point on the concentration scale where inhibition reaches its midpoint. A higher IC50 goes with weaker potency.

This note sets out measurements from ChEMBL document CHEMBL1133568 (J Med Chem, 2000).

The source made the active and inactive calls. The calls are words filed in the database; no cut-off is given here.

Test [1] concerns the target T1, Androgen receptor (Rattus norvegicus) (UniProt P15207).
T1 sequence (whole entry): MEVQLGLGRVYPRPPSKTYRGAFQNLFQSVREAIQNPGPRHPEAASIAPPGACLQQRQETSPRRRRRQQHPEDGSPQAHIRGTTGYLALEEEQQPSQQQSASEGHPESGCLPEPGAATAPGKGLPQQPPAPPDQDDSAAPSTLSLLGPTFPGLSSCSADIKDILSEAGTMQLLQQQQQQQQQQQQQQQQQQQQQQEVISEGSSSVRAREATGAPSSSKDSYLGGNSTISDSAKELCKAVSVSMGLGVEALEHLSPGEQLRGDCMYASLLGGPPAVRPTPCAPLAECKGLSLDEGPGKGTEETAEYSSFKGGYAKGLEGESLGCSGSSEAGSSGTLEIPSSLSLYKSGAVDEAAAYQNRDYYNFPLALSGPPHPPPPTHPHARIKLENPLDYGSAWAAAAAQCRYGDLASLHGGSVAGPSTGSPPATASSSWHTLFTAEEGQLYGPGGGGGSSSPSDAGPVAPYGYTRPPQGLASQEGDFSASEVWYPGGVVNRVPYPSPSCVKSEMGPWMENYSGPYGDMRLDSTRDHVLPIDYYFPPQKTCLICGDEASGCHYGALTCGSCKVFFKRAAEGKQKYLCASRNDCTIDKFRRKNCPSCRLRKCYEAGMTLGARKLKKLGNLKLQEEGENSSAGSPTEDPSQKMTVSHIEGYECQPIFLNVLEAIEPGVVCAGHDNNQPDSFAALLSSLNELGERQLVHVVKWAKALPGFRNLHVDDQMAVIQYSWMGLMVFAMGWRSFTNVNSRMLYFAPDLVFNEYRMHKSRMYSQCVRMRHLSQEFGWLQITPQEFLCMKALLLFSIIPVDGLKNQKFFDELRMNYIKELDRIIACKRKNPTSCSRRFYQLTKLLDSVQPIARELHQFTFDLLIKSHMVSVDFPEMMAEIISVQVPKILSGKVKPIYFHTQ
Kind of test: Relative binding affinity against androgen (AR) receptor of rat after 24 hr incubation as percent binding compared to R1881.

Test [2] addresses T2, Glucocorticoid receptor (Rattus norvegicus) (UniProt P06536).
T2 sequence (whole entry): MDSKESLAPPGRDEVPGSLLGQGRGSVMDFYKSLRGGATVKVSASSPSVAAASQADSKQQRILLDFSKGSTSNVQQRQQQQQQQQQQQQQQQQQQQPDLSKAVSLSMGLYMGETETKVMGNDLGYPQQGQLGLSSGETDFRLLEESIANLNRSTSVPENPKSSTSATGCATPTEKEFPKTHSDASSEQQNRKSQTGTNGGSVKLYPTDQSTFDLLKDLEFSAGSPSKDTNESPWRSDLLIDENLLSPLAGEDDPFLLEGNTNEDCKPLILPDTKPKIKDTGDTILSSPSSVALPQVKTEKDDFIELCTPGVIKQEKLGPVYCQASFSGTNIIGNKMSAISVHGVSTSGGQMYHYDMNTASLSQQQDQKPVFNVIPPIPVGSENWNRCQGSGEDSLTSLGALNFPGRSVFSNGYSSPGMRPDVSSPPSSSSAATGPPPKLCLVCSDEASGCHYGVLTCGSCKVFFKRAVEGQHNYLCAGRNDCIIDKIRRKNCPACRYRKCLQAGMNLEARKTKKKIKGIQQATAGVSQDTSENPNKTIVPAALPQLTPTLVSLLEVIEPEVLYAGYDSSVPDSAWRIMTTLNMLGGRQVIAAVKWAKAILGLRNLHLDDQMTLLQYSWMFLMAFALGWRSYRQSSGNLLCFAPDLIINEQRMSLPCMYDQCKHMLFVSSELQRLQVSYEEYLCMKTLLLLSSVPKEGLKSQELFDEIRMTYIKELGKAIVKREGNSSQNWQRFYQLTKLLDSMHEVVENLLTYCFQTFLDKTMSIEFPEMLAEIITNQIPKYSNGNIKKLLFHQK
Kind of test: Relative binding affinity against Glucocorticoid receptor of rat after 2 hr incubation as percent binding compared to Dexamethasone.

Test [3] deals with T3, Progesterone receptor (Homo sapiens, UniProt P06401).
T3 sequence (P06401 whole entry): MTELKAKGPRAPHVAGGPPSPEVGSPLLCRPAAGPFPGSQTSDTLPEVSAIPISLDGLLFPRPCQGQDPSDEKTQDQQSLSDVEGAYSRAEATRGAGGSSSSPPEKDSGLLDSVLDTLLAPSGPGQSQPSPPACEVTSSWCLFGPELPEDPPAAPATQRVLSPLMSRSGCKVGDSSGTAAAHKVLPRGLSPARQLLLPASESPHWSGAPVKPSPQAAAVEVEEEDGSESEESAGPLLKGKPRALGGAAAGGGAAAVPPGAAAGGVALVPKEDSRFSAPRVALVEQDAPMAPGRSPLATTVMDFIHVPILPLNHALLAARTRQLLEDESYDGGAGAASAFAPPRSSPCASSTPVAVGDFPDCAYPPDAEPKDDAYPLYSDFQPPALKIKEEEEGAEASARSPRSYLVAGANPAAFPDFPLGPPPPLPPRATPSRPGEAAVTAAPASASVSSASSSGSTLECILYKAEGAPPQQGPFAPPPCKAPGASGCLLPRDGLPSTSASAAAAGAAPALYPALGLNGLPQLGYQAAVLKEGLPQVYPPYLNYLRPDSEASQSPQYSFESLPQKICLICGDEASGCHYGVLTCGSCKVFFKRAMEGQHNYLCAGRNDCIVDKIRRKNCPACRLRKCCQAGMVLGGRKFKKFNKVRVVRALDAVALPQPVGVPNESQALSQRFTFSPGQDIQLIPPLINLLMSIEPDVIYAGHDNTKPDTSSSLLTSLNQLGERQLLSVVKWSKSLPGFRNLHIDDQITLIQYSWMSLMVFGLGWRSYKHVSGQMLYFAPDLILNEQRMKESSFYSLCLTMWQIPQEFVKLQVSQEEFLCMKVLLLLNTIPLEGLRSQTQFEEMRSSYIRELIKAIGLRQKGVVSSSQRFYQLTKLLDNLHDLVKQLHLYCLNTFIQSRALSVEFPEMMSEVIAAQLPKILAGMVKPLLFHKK
Kind of test: In vitro antagonist potency in transactivation assay in neuroblastoma cells expressing human PR-A progesterone receptor. In kind it is functional, cell-based.

A further test has as its target T4, Androgen receptor (Homo sapiens, UniProt P10275).
T4 sequence (P10275 whole entry): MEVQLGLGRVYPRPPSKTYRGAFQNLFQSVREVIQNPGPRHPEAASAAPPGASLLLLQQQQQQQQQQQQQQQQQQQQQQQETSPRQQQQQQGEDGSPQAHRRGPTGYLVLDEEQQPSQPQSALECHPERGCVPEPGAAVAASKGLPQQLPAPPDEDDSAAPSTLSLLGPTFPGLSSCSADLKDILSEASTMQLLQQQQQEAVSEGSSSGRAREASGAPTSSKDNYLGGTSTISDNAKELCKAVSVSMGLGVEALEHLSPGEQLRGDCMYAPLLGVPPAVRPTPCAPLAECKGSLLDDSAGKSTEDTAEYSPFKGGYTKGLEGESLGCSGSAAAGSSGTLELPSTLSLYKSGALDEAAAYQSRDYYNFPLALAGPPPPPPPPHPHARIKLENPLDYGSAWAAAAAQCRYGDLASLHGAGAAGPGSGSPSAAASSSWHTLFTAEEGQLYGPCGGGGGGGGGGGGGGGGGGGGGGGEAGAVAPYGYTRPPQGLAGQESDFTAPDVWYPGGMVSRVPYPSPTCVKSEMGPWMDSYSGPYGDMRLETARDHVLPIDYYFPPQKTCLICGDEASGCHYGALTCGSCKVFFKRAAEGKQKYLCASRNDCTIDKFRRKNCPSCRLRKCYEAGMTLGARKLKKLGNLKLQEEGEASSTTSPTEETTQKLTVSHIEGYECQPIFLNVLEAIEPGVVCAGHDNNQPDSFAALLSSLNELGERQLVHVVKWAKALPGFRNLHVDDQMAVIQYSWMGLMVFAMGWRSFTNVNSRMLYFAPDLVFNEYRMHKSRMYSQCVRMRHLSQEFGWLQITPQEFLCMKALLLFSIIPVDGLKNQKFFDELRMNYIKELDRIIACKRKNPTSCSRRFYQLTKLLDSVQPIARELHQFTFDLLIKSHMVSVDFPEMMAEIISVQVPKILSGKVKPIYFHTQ
The test is described as follows: In vitro antagonist potency in transactivation assay in CV-1 cells expressing androgen receptor. Format: functional, cell-based.

In test [4] the target is T3, Progesterone receptor. Kind of test: In vitro antagonist potency in transactivation assay in neuroblastoma cells expressing human PR-B progesterone receptor. In kind it is functional, cell-based.
Another test concerns the target T5, Glucocorticoid receptor (Mus musculus, UniProt P06537).
T5 sequence (P06537 whole entry): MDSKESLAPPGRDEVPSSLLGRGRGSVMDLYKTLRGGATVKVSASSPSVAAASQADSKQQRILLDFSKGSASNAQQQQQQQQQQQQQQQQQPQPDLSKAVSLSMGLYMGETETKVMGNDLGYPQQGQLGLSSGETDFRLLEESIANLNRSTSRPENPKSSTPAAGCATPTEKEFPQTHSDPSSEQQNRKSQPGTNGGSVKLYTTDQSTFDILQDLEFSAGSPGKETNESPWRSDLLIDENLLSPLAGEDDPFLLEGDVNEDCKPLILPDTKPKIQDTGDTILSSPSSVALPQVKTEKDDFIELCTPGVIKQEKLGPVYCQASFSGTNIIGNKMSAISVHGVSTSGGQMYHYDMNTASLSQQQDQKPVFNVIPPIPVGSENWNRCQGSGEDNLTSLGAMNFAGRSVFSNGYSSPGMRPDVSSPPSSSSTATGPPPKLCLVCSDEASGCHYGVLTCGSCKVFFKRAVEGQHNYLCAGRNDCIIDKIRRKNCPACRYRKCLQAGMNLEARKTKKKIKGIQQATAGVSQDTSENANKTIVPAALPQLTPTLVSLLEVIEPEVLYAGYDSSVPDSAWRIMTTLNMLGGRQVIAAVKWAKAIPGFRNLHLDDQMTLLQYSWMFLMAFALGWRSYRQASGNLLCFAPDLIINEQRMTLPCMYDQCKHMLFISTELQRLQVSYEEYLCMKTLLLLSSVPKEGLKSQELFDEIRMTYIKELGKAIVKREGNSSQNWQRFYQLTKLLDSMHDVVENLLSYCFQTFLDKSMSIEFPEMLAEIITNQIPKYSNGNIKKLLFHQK
The test is described as follows: In vitro antagonist potency in transactivation assay in NIH3T3 cells expressing glucocorticoid receptor. In kind it is functional, cell-based.

The species named for a further test is Oryctolagus cuniculus. Kind of test: Relative binding affinity against rabbit progesterone (PR) receptor after 24 hr incubation as perent binding compared to progesterone.
For test [5], the target named is T6, Progesterone receptor (Rattus norvegicus) (UniProt Q63449).
T6 sequence (whole entry): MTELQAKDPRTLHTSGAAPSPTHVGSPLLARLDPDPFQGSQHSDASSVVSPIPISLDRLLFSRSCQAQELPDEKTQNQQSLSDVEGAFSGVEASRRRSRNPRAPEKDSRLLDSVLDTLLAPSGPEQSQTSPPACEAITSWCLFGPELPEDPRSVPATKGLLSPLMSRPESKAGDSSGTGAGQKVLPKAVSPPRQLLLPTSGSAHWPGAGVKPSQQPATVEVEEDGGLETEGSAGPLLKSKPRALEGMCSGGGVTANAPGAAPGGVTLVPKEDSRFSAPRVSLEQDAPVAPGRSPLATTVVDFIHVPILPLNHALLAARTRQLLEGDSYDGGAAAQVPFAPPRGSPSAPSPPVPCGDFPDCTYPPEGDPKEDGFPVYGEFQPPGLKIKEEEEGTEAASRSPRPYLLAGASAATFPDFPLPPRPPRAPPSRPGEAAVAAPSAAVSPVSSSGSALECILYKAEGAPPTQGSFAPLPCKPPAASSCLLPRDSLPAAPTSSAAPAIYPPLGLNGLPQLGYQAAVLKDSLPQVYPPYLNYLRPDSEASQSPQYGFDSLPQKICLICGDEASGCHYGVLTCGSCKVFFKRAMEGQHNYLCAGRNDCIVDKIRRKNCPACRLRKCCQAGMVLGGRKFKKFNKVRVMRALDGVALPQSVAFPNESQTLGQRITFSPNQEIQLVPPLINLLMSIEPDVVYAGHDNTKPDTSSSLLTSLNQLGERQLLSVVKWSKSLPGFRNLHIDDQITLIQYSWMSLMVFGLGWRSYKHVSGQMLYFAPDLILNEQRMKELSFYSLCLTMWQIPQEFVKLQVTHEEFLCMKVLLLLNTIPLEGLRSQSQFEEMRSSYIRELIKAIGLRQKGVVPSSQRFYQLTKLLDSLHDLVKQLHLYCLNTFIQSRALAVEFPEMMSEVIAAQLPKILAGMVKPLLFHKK
Kind of test: Full abortifacient effect at 0.03 mg/animal/day in pregnant rats. Format: functional.

For test [6], the target named is T6, Progesterone receptor (Rattus norvegicus). Kind of test: Full abortifacient effect at 0.1 mg/animal/day in pregnant rats. In kind it is functional.
Test [7] shares this target. Kind of test: Full abortifacient effect at 0.3 mg/animal/day in pregnant rats. Format: functional.
Test [8] has the same target. The test is described as follows: Incomplete abortifacient effect at 0.03 mg/animal/day in pregnant rats. In kind it is functional.
For test [9] the target is unchanged. Kind of test: Incomplete abortifacient effect at 0.1 mg/animal/day in pregnant rats. In kind it is functional.
The target is the same in test [10]. Kind of test: Incomplete abortifacient effect at 0.3 mg/animal/day in pregnant rats. Format: functional.
Test [11] has as its target T1, Androgen receptor (Rattus norvegicus).
Description: Antiandrogenic activity in orchidectomized young male rats after oral administration
For test [12], the target named is T2, Glucocorticoid receptor (Rattus norvegicus).
Description: Antiglucocorticoid activity in adrenalectomized young male rats after oral administration
The target of test [13] is T7, Progesterone receptor (Homo sapiens) (UniProt P06401).
T7 sequence (whole entry): T3 sequence (P06401 whole entry)
Description: In vitro agonist potency in transactivation assay of neuroblastoma cells expressing human PR-B progesterone receptor; NE=no effect

The target in test [14] is T7, Progesterone receptor (Homo sapiens). This is another data set of the same source.
The target of test [15] is T8, Glucocorticoid receptor (Mus musculus) (UniProt P06537).
T8 sequence (whole entry): T5 sequence (P06537 whole entry)
As to conditions: NIH3T3.
Description: In vitro agonist potency in transactivation assay in NIH3T3 cells expressing glucocorticoid receptor; NE=no effect

Take `CC(=O)c1ccc([C@H]2C[C@@]3(C)[C@@H](CC[C@@]3(O)C(F)(F)C(F)(F)F)[C@@H]3CCC4=CC(=O)CCC4=C32)cc1` [LONAPRISAN]: the RBA was determined as 3.1% in test [1], 22.2% in test [2] and 140% in the test filed under Oryctolagus cuniculus. In addition, the IC50 came out at 0.0036 nM at Progesterone receptor [3], 54 nM against Androgen receptor, 0.0025 nM on Progesterone receptor [4] and 16 nM at Glucocorticoid receptor. In addition, the Abortion in [5] is 0%; in [6], 83%; in test [7] it was 100%; in [8] it was 0%; in test [9] it was 17%; in test [10], 0%. Moreover, the ED50 mg/animal/day in test [11] turned out to be 1.3; in test [12], 2.
For `CC#C[C@]1(O)CC[C@H]2[C@@H]3CCC4=CC(=O)CCC4=C3[C@@H](c3ccc(N(C)C)cc3)C[C@@]21C` [MIFEPRISTONE], on Glucocorticoid receptor, the midpoint of inhibition, the IC50, lay at 2.2 nM. For the same molecule, the NE result in test [13], in test [14] and in test [15] was “inactive” each time.
